Among the data in PubChem BioAssay AID1259407 (Chemical Carcinogenesis Research Information System (CCRIS), 2018) are mutagenic call values, retold here.

In the series the test system is CCRIS mutagenicity, Ames/micronucleus/aberration tests. As to the kind of experiment: CCRIS mutagenicity studies.
Setting [1] is: Test System: AMES SALMONELLA TYPHIMURIUM, Strain/Indicator: TA98, Metabolic Activation: RAT, LIVER, S-9, AROCLOR 1254, Method: STANDARD PLATE.
Setting [2] is: Test System: AMES SALMONELLA TYPHIMURIUM, Strain/Indicator: TA100, Metabolic Activation: NONE, Method: STANDARD PLATE.
The mark [3] stands for this setting: Test System: AMES SALMONELLA TYPHIMURIUM, Strain/Indicator: TA100, Metabolic Activation: RAT, LIVER, S-9, AROCLOR 1254, Method: STANDARD PLATE.
[4] abbreviates: Test System: AMES SALMONELLA TYPHIMURIUM, Strain/Indicator: TA1535, Metabolic Activation: NONE, Method: STANDARD PLATE.
Setting [5] is: Test System: AMES SALMONELLA TYPHIMURIUM, Strain/Indicator: TA98, Metabolic Activation: NONE, Method: PREINCUBATION
Where [6] appears, read: Test System: AMES SALMONELLA TYPHIMURIUM, Strain/Indicator: TA100, Metabolic Activation: NONE, Method: PREINCUBATION
Setting [7] is: Test System: AMES SALMONELLA TYPHIMURIUM, Strain/Indicator: TA1535, Metabolic Activation: NONE, Method: PREINCUBATION
Where [8] appears, read: Test System: AMES SALMONELLA TYPHIMURIUM, Strain/Indicator: TA98, Metabolic Activation: NONE, Method: STANDARD PLATE.

The source made the active and inactive calls. The rule behind the calls is not given here.

As for `Oc1ccc2c(O)c3ccccc3cc2c1O`, the mutagenic call under setting [1] was “inactive; negative”; the mutagenic call under setting [2] was “inactive; negative”; the mutagenic call under setting [3] was “inactive; negative”; the mutagenic call under setting [4] was “inactive; negative”; the mutagenic call (Test System: AMES SALMONELLA TYPHIMURIUM, Strain/Indicator: TA1535, Metabolic Activation: RAT, LIVER, S-9, AROCLOR 1254, Method: STANDARD PLATE) is “inactive; negative”; the mutagenic call (Test System: AMES SALMONELLA TYPHIMURIUM, Strain/Indicator: TA1537, Metabolic Activation: NONE, Method: STANDARD PLATE) was “active; positive”. The mutagenic call runs as follows: (Test System: AMES SALMONELLA TYPHIMURIUM, Strain/Indicator: TA1538, Metabolic Activation: NONE, Method: STANDARD PLATE) “inactive; negative”; (Test System: AMES SALMONELLA TYPHIMURIUM, Strain/Indicator: TA1538, Metabolic Activation: RAT, LIVER, S-9, AROCLOR 1254, Method: STANDARD PLATE) “inactive; negative”.
With `O=CNc1ccc2c(c1)Cc1ccccc1-2`, the mutagenic call under setting [1] is “active; positive”.
As for `CC(=O)Nc1ccc(Oc2ccc(NO)cc2)cc1`, the mutagenic call reads like this: (Test System: AMES SALMONELLA TYPHIMURIUM, Strain/Indicator: TA98(1,8-DNP6), Metabolic Activation: NONE, Method: PREINCUBATION) “active; positive”; (Test System: AMES SALMONELLA TYPHIMURIUM, Strain/Indicator: TA98(1,8-DNP6), Metabolic Activation: RAT, LIVER, S-9, AROCLOR 1254, Method: PREINCUBATION) “active; positive”; (Test System: AMES SALMONELLA TYPHIMURIUM, Strain/Indicator: TA98(NR), Metabolic Activation: NONE, Method: PREINCUBATION) “active; positive”; (Test System: AMES SALMONELLA TYPHIMURIUM, Strain/Indicator: TA98(NR), Metabolic Activation: RAT, LIVER, S-9, AROCLOR 1254, Method: PREINCUBATION) “active; positive”; under setting [5], “active; positive”; (Test System: AMES SALMONELLA TYPHIMURIUM, Strain/Indicator: TA98, Metabolic Activation: RAT, LIVER, S-9, AROCLOR 1254, Method: PREINCUBATION) “active; positive”. The mutagenic call runs as follows: (Test System: AMES SALMONELLA TYPHIMURIUM, Strain/Indicator: TA100(NR), Metabolic Activation: NONE, Method: PREINCUBATION) “active; positive”; under setting [6], “active; positive”.
On to `Nc1ccc(O)c(C(=O)O)c1`, for which the mutagenic call reads like this: under setting [5], “inactive; negative”; (Test System: AMES SALMONELLA TYPHIMURIUM, Strain/Indicator: TA98, Metabolic Activation: S-9, Method: PREINCUBATION) “inactive; negative”; under setting [6], “inactive; negative”; (Test System: AMES SALMONELLA TYPHIMURIUM, Strain/Indicator: TA100, Metabolic Activation: S-9, Method: PREINCUBATION) “inactive; negative”; under setting [7], “inactive; negative”; (Test System: AMES SALMONELLA TYPHIMURIUM, Strain/Indicator: TA1535, Metabolic Activation: S-9, Method: PREINCUBATION) “inactive; negative”. Further, the mutagenic call reads like this: (Test System: AMES SALMONELLA TYPHIMURIUM, Strain/Indicator: TA1537, Metabolic Activation: NONE, Method: PREINCUBATION) “inactive; negative”; (Test System: AMES SALMONELLA TYPHIMURIUM, Strain/Indicator: TA1537, Metabolic Activation: S-9, Method: PREINCUBATION) “inactive; negative”; (Test System: E. COLI, Strain/Indicator: WP2 UVRA, Metabolic Activation: NONE, Method: PREINCUBATION) “inactive; negative”; (Test System: E. COLI, Strain/Indicator: WP2 UVRA, Metabolic Activation: S-9, Method: PREINCUBATION) “inactive; negative”.
Turning to `C=CC1CO1` (centres undefined), the mutagenic call was “active; positive” (End Point: IN VIVO CHROMOSOMAL ABERRATIONS, Test System: BONE MARROW CELLS, Species: MOUSE, Strain/Sex: C57B1/6/MALE, Route: IP INJECTION (ONCE)); “active; positive” (End Point: IN VIVO MICRONUCLEUS, Test System: BONE MARROW POLYCHROMATIC ERYTHROCYTES, Species: MOUSE, Strain/Sex: C57/BL/MALE, Route: INTRAPERITONEAL INJECTION); “active; positive” (End Point: IN VIVO MICRONUCLEUS, Test System: PERIPHERAL BLOOD RETICULOCYTES, Species: MOUSE, Strain/Sex: BALB/C/MALE, Route: IP INJECTION, ONCE); “active; positive” (End Point: IN VIVO MICRONUCLEUS, Test System: SPERMATID, Species: RAT, Strain/Sex: SPRAGUE-DAWLEY/MALE, Route: IP INJECTION); “active; positive only at 14 d and higher dose levels” (End Point: IN VIVO MICRONUCLEUS, Test System: SPERMATIDS, Species: MOUSE, Strain/Sex: (102XC3H)F1/MALE, Route: IP INJECTION); “active; positive (positive in golgi-phase and at highest dose after 14 or 16 d)” (End Point: IN VIVO MICRONUCLEUS, Test System: SPERMATIDS, Species: MOUSE, Strain/Sex: BALB/C/MALE, Route: IP INJECTION, ONCE). For the same molecule, the mutagenic call is “active; positive” (End Point: IN VIVO MICRONUCLEUS, Test System: SPERMATIDS, Species: RAT, Strain/Sex: LEWIS/MALE, Route: IP INJECTION); “active; positive” (End Point: IN VIVO MICRONUCLEUS, Test System: SPLENOCYTES, Species: MOUSE, Strain/Sex: (102XC3H)F1/MALE, Route: IP INJECTION); “active; positive only for 48.8 mg dose at either 2 or 16 d after treatment” (End Point: IN VIVO MICRONUCLEUS, Test System: SPLENOCYTES, Species: MOUSE, Strain/Sex: BALB/C, Route: IP); “active; positive” (End Point: IN VIVO MICRONUCLEUS, Test System: SPLENOCYTES, Species: RAT, Strain/Sex: LEWIS/MALE, Route: IP INJECTION); “inactive; negative” under setting [8]; “active; positive” (Test System: AMES SALMONELLA TYPHIMURIUM, Strain/Indicator: TA100, Metabolic Activation: HAMSTER, LIVER, S-9, AROCLOR 1254 (10%), Method: PREINCUBATION). Besides, the mutagenic call runs as follows: under setting [6], “active; positive”; under setting [2], “active; positive”; (Test System: AMES SALMONELLA TYPHIMURIUM, Strain/Indicator: TA100, Metabolic Activation: RAT, LIVER, S-9, AROCLOR 1254 (10%), Method: PREINCUBATION) “active; positive”; under setting [3], “active; positive”; (Test System: AMES SALMONELLA TYPHIMURIUM, Strain/Indicator: TA1535, Metabolic Activation: HAMSTER, LIVER, S-9, AROCLOR 1254 (10%), Method: PREINCUBATION) “active; positive”; under setting [7], “active; positive”. The mutagenic call runs as follows: under setting [4], “active; positive”; (Test System: AMES SALMONELLA TYPHIMURIUM, Strain/Indicator: TA1535, Metabolic Activation: RAT, LIVER, S-9, AROCLOR 1254 (10%), Method: PREINCUBATION) “active; positive”; (Test System: UDS MOUSE SPERM CELL, Strain/Indicator: THY INCORP, Metabolic Activation: IN VIVO, Method: LIQUID SCINTILLATION COUNTING) “inactive; negative”; (Test System: UDS RODENT HEPATOCYTES, Strain/Indicator: THY INCORP (NON-S-PHASE), Metabolic Activation: NONE, Method: AUTORADIOGRAPHY) “inactive; negative”.
On to `CC(C)OC(=O)/C(Cl)=C(/Cl)C=O`, for which the mutagenic call under setting [2] was “active; positive”.
`CC(C)(O)CCc1ccc(O)c2c(=O)c3c(O)c4c(cc3oc12)O[C@H]1OC=C[C@@]41O`: the mutagenic call by setting is: under setting [8], “inactive; negative”; under setting [1], “active; positive”; under setting [2], “inactive; negative”; under setting [3], “active; positive”.
